Here are results for eight compounds from ChEMBL document CHEMBL4145518, “High anticancer potency on tumor cells of dehydroabietylamine Schiff-base derivatives and a copper(II) complex” (Eur J Med Chem, 2018).

The term IC50 denotes the concentration at which inhibition is half-maximal.

In one data set the test system is MCF7. The data set can be described thus: Antiproliferative activity against human MCF7 cells after 36 hrs by MTT assay. The format is functional, cell-based. The following applies: MCF7, 36 h. (Tetrazolium assays rely on reduction of a dye to a coloured formazan, in cell work by metabolically active cells.)
Data set [1] relates to Salmon testes DNA. Description: Binding affinity to salmon sperm DNA assessed as DNA intercalation at 5 10^-5M by ethidium bromide staining based fluorescence assay. The format is nucleic-acid assay. The following applies: Salmonidae.
The test system of a further data set is HUVEC. The data set can be described thus: Cytotoxicity against HUVEC assessed as reduction in cell viability after 36 hrs by MTT assay. The format is cell-based. Conditions: Homo sapiens.
For data set [2], the system named is HepG2. The data set can be described thus: Antiproliferative activity against human HepG2 cells after 36 hrs by MTT assay. The format is functional, cell-based. Conditions: HepG2, 36 h.
Another data set deals with HeLa. Description: Antiproliferative activity against human HeLa cells after 36 hrs by MTT assay. The format is functional, cell-based.
The next data set has as its system A549. The data set can be described thus: Antiproliferative activity against human A549 cells after 36 hrs by MTT assay. The format is functional, cell-based. Conditions: A549, 36 h.
Data set [3] relates to HepG2. The data set can be described thus: Induction of apoptosis in human HepG2 cells assessed as early apoptotic cells at 10 ug/ml after 24 hrs by Annexin V/propidium iodide staining based flow cytometry (reference value: 7.92%). Format: functional. Background: A flow cytometer gives signals particle by particle.
The test system of data set [4] is HepG2. Description: Induction of apoptosis in human HepG2 cells assessed as necrotic cells at 10 ug/ml after 24 hrs by Annexin V/propidium iodide staining based flow cytometry (reference value: 1.86%). Format: functional.
The subject of data set [5] is HepG2. The data set can be described thus: Induction of apoptosis in human HepG2 cells assessed as late apoptotic cells at 1 ug/ml after 24 hrs by Annexin V/propidium iodide staining based flow cytometry (reference value: 7.09%). Format: functional.
The subject of data set [6] is HepG2. The data set can be described thus: Induction of apoptosis in human HepG2 cells assessed as late apoptotic cells at 0.1 ug/ml after 24 hrs by Annexin V/propidium iodide staining based flow cytometry (reference value: 7.09%). The format is functional.
For data set [7], the system named is HepG2. The data set can be described thus: Induction of apoptosis in human HepG2 cells assessed as early apoptotic cells at 0.1 ug/ml after 24 hrs by Annexin V/propidium iodide staining based flow cytometry (reference value: 7.92%). The format is functional.
For data set [8], the system named is HepG2. Description: Induction of apoptosis in human HepG2 cells assessed as late apoptotic cells at 10 ug/ml after 24 hrs by Annexin V/propidium iodide staining based flow cytometry (reference value: 7.09%). Format: functional.
For data set [9], the system named is HepG2. The data set can be described thus: Induction of apoptosis in human HepG2 cells assessed as early apoptotic cells at 1 ug/ml after 24 hrs by Annexin V/propidium iodide staining based flow cytometry (reference value: 7.92%). The format is functional.
In data set [10] the test system is HepG2. The data set can be described thus: Induction of apoptosis in human HepG2 cells assessed as viable cells at 0.1 ug/ml after 24 hrs by Annexin V/propidium iodide staining based flow cytometry (reference value: 83.13%). Format: functional. The following applies: HepG2, 24 h, read-out: Activity.
Data set [11] relates to HepG2. Description: Induction of apoptosis in human HepG2 cells assessed as viable cells at 1 ug/ml after 24 hrs by Annexin V/propidium iodide staining based flow cytometry (reference value: 83.13%). Format: functional. Conditions: HepG2, 24 h, read-out: Activity.
Data set [12] concerns HepG2. The data set can be described thus: Induction of apoptosis in human HepG2 cells assessed as necrotic cells at 0.1 ug/ml after 24 hrs by Annexin V/propidium iodide staining based flow cytometry (reference value: 1.86%). The format is functional.
Data set [13] concerns HepG2. The data set can be described thus: Induction of apoptosis in human HepG2 cells assessed as necrotic cells at 1 ug/ml after 24 hrs by Annexin V/propidium iodide staining based flow cytometry (reference value: 1.86%). The format is functional.
The subject of data set [14] is HepG2. The data set can be described thus: Induction of apoptosis in human HepG2 cells assessed as viable cells at 10 ug/ml after 24 hrs by Annexin V/propidium iodide staining based flow cytometry (reference value: 83.13%). The format is functional. Conditions: HepG2, 24 h, read-out: Activity.
For a further data set, the target named is T1, Androgen receptor (Homo sapiens, UniProt P10275).
T1 sequence (P10275 whole entry): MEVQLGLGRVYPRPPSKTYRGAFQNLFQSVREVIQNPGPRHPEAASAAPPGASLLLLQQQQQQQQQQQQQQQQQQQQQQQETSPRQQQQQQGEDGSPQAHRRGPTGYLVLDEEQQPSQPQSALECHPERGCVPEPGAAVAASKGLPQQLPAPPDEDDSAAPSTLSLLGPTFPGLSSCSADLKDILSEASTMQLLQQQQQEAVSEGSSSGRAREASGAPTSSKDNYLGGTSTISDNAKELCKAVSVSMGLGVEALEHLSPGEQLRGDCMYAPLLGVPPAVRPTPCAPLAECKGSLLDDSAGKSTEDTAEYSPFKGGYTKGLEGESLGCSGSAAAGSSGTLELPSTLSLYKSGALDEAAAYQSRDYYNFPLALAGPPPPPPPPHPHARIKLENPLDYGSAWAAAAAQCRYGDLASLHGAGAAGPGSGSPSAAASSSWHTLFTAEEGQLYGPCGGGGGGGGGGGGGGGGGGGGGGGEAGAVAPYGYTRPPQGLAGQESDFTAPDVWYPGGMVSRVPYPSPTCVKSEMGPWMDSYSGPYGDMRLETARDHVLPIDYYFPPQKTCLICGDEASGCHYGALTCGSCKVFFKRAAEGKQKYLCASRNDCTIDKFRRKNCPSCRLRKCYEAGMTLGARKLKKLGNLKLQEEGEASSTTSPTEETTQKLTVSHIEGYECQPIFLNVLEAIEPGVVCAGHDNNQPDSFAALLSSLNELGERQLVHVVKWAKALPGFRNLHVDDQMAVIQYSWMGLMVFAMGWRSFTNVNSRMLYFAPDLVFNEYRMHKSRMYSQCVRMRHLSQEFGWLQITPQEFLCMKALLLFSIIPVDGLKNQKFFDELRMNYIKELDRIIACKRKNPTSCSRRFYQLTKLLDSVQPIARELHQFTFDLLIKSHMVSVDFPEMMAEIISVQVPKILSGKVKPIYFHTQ
Description: Binding affinity to androgen receptor (unknown origin).

For data set [15], the system named is Salmon testes DNA. Description: Binding affinity to salmon sperm DNA assessed as DNA intercalation at 1.5 10^-5M by ethidium bromide staining based fluorescence assay. The following applies: Salmonidae. Format: nucleic-acid assay.
Data set [16] concerns Salmon testes DNA. Description: Binding affinity to salmon sperm DNA assessed as hypochromic shift at 1.5 10^-5M by ethidium bromide staining based fluorescence assay. Format: nucleic-acid assay. Conditions: Salmonidae.
Data set [17] deals with Salmon testes DNA. The data set can be described thus: Binding affinity to salmon sperm DNA assessed as hypochromic shift at 5 10^-5M by ethidium bromide staining based fluorescence assay. The format is nucleic-acid assay. Conditions: Salmonidae.
A short description of data set [18]: Selectivity index, ratio of IC50 for HUVEC to IC50 for human HepG2 cells. The format is toxicity. The following applies: HUVEC and HepG2 cells, read-out: Ratio IC50.
Data set [19] concerns Salmon testes DNA. The data set can be described thus: Binding affinity to salmon sperm DNA assessed as DNA intercalation by ethidium bromide staining based fluorescence assay. The format is nucleic-acid assay. Conditions: Salmonidae.

The structures appear in SMILES notation. The source made the active and inactive calls. The calls are words filed in the database; no cut-off is given here.

As to `CC(C)c1ccc2c(c1)CC[C@H]1[C@](C)(C/N=C/c3cc(C(C)(C)C)cc(C(C)(C)C)c3O)CCC[C@]21C`, the IC50 came out at 5.41 µM in the data set on MCF7; 41 µM in the data set on HUVEC; 17.6 µM in the data set on HepG2 [2]; 41 µM in the data set on HeLa; 40 µM in the data set with A549. Also, the outcome in the data set on Salmon testes DNA [1] was Active.

In the case of `CC(C)c1ccc2c(c1)CC[C@H]1[C@](C)(CN)CCC[C@]21C`, the Activity with HepG2 [3] was 91.91%; in the data set on HepG2 [4], 0%; with HepG2 [5], 22.98%; with HepG2 [6] it was 15.46%; with HepG2 [7], 22.94%; in the data set with HepG2 [8] it was 0.7%. Further, the Activity in the data set on HepG2 [9] is listed as 44.79%; with HepG2 [12], 0.69%; in the data set on HepG2 [13], 0.24%. Moreover, the IC50 stood at 19.4 µM in the data set with MCF7; 1.27 µM with HUVEC; 2.56 µM in the data set on HepG2 [2]; 2.02 µM in the data set with HeLa; 5.02 µM in the data set with A549. For the same compound, the viability at 0.1 µg/mL in the data set with HepG2 [10] was 60.9%. Besides, the viability at 1 µg/mL with HepG2 [11] was 32%. Besides, the viability at 10 µg/mL in the data set on HepG2 [14] stood at 1.4%.

Regarding `CC(C)c1ccc2c(c1)CC[C@H]1[C@](C)(C/N=C/c3cccc(C(C)(C)C)c3O)CCC[C@]21C`, the IC50 with MCF7 came out at 25 µM; with HUVEC, 33 µM; with HepG2 [2], 10.5 µM; with HeLa it was 20 µM; in the data set with A549, 41 µM. Moreover, the outcome with Salmon testes DNA [1] was Active.

On to `CC(C)c1ccc2c(c1)C(=O)C[C@H]1[C@@](C)(CNC(=O)c3ccccc3)CCC[C@]21C`, for which the IC50 at Androgen receptor was found to be 83.8 µM.

Turning to `CC(C)c1ccc2c(c1)CC[C@H]1[C@](C)(C/N=C/c3ncc[nH]3)CCC[C@]21C`, the Activity is given as 98.32% with HepG2 [3]; 0% in the data set with HepG2 [4]; 10.13% in the data set with HepG2 [5]; 18.54% in the data set on HepG2 [6]; 26.33% with HepG2 [7]; 0.32% with HepG2 [8]. The Activity in the data set on HepG2 [9] is listed as 51.15%; in the data set with HepG2 [12] it was 0.69%; in the data set on HepG2 [13], 0.25%. The outcome in the data set with Salmon testes DNA [15] and with Salmon testes DNA [16] was Active. The IC50 was found to be 4.28 µM in the data set on MCF7; 7.67 µM in the data set with HUVEC; 0.24 µM in the data set with HepG2 [2]; 3.22 µM with HeLa; 3.17 µM with A549. The viability at 0.1 µg/mL in the data set on HepG2 [10] stood at 54.4%. The viability at 1 µg/mL with HepG2 [11] amounted to 38.5%. The viability at 10 µg/mL with HepG2 [14] turned out to be 1.06%.

Take `CC(C)c1ccc2c(c1)CC[C@H]1[C@](C)(C/N=C/c3c[nH]cn3)CCC[C@]21C`: the Activity was 98.78% in the data set with HepG2 [3]; 0% with HepG2 [4]; 6.39% in the data set with HepG2 [5]; 12.9% with HepG2 [6]; 33.71% with HepG2 [7]; 0.29% in the data set on HepG2 [8]. Besides, the results for the Activity with HepG2 [9], in the data set with HepG2 [12] and in the data set on HepG2 [13] were 60.49%, 0.66% and 0.23%, respectively. Further, the IC50 in the data set with MCF7 came to 2.58 µM; with HUVEC, 26 µM; in the data set with HepG2 [2] it was 0.14 µM; with HeLa, 7.86 µM; in the data set on A549, 7 µM. Besides, the outcome in the data set on Salmon testes DNA [1] and with Salmon testes DNA [17] was Active. In the data set on HepG2 [10], the viability at 0.1 µg/mL came out at 52.7%. For the same compound, the selectivity ratio in data set [18] turned out to be 180. Further, the viability at 1 µg/mL with HepG2 [11] was found to be 32.9%. For the same compound, the viability at 10 µg/mL with HepG2 [14] was 0.93%.

For the compound `COc1cccc2c1C(=O)c1c(O)c3c(c(O)c1C2=O)C[C@@](O)(C(=O)CO)C[C@@H]3O[C@H]1C[C@H](N)[C@H](O)[C@H](C)O1` [DOXORUBICIN], the Activity with HepG2 [3] amounted to 70.12%; in the data set on HepG2 [4], 0%; in the data set on HepG2 [5] it was 12.6%; in the data set with HepG2 [6], 11.74%; in the data set with HepG2 [7], 34.49%; in the data set on HepG2 [8], 3.57%. Moreover, the values for the Activity with HepG2 [9], in the data set with HepG2 [12] and in the data set on HepG2 [13] were 47.19%, 0.62% and 0.35%, respectively. For the same compound, the result in the data set with Salmon testes DNA [19] was Active. Moreover, the viability at 0.1 µg/mL with HepG2 [10] amounted to 53.1%. In addition, the viability at 1 µg/mL with HepG2 [11] stood at 39.9%. The viability at 10 µg/mL with HepG2 [14] is 26.3%.

Turning to `CCN(CC)c1ccc(/C=N/C[C@]2(C)CCC[C@]3(C)c4ccc(C(C)C)cc4CC[C@@H]23)c(O)c1`, the IC50 in the data set with MCF7 was found to be 14.1 µM; in the data set on HUVEC, 43.1 µM; with HepG2 [2] it was 10.7 µM; in the data set with HeLa it was 11.2 µM; in the data set on A549, 17 µM. In addition, the result in the data set on Salmon testes DNA [1] was Active.
